From PubChem BioAssay (NCI)
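These data come from cells grown in 96-well plates and exposed to compound for 48 hours at five concentrations. GI50 is the concentration that inhibits growth by half. TGI denotes the concentration required for complete inhibition of growth.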

Legend:
Experiment in all cases: NCI anticancer screen, dose series, 48 h
[1] = system: UACC-257 melanoma
[2] = system: A549 NSCLC
[3] = system: SN12C renal
[4] = system: HT29 colon
[5] = system: U251 CNS
[6] = system: K-562 leukemia
[7] = system: MALME-3M melanoma
[8] = system: NCI-H522 lung
[9] = system: OVCAR-8 ovarian
[10] = system: HOP-92 NSCLC

SMILES | TGI [1] | TGI [2] | TGI [3] | TGI [4] | TGI [5] | TGI [6] | TGI [7] | TGI [8] | TGI [9] | TGI [10] | GI50 [2] | GI50 [6] | GI50 [10] | GI50 [8]
NC(C(=O)OC(=O)c1ccccc1)C(=O)OC(=O)c1ccccc1 | > 100 µM | > 100 µM | > 100 µM | > 100 µM | > 100 µM | > 100 µM | > 100 µM | > 100 µM | > 100 µM | – | – | – | – | –
CC(=O)OC1OC(c2ccoc2)C[C@@]12C1CCC3O[C@]3(C)[C@]1(C)C[C@H](OC(C)=O)[C@H]2C (stereo not given in full) | > 75 µM | > 75 µM | > 75 µM | > 75 µM | > 75 µM | > 75 µM | – | > 75 µM | > 75 µM | > 75 µM | – | – | – | –
CCCCc1c2c(nc3c1CC/C(=C\c1ccc([N+](=O)[O-])cc1)C3=O)CCCC2 | 4.6 µM | 16.3 µM | 3.34 µM | 2.66 µM | 2.96 µM | 6.88 µM | 3.84 µM | 2.84 µM | 3.47 µM | – | – | – | – | –
CN(C)/C=C/c1c2c(nc3ccccc13)C(=O)c1ccccc1C2=O | 1.77 µM | 8.72 µM | 2.84 µM | 4.85 µM | 4.66 µM | > 100 µM | – | 4.61 µM | 7.71 µM | 30 µM | – | – | – | –
Brc1ccc(-c2cc(-c3ccc4c(c3)OCO4)c(-c3cccs3)n2Cc2ccccc2)cc1 | > 100 µM | > 100 µM | > 100 µM | > 100 µM | > 100 µM | > 100 µM | – | – | > 100 µM | – | – | – | – | –
COc1cc2cc(C(=O)N3CC(CCl)c4c3cc(O)c3ccccc43)[nH]c2c(OC)c1OC (stereo not given) | – | > 50 µM | – | > 50 µM | 24.6 µM | > 50 µM | < 0.005 µM | 0.155 µM | > 50 µM | – | – | – | – | –
Cc1nn(-c2ccccc2)c2nc3ccc(Cl)cc3c(-c3ccccc3)c12 | – | > 100 µM | > 100 µM | > 100 µM | > 100 µM | – | > 100 µM | > 100 µM | > 100 µM | > 100 µM | – | – | – | –
CCCCN1C(=O)CS/C1=N/Nc1nc2c([nH]1)c(=O)n(C)c(=O)n2C | > 100 µM | > 100 µM | > 100 µM | > 100 µM | > 100 µM | > 100 µM | > 100 µM | > 100 µM | – | > 100 µM | – | – | – | –
C/C(=C1\C(=O)C(c2ccccc2)N(c2ccccc2)C1=O)c1ccc(Cl)cc1 (stereo not given) | 30.8 µM | 36.5 µM | 86 µM | 31.2 µM | 29.4 µM | > 100 µM | 37.4 µM | 38.7 µM | – | 13.6 µM | – | – | – | –
Cc1nc2ccccc2n1Cc1nnc2n1N=C(c1ccccc1)CS2 | 65.3 µM | > 100 µM | > 100 µM | > 100 µM | > 100 µM | – | > 100 µM | 71.2 µM | – | – | – | – | – | –
COc1ccc(-c2nc3c(nc2-c2ccc(OC)cc2)N(C)S(=O)(=O)N=C3N)cc1 | – | > 100 µM | > 100 µM | 74.9 µM | > 100 µM | > 100 µM | 58.8 µM | 36 µM | > 100 µM | 51.6 µM | – | – | – | –
COc1cccc(C=C2N=C(C)N(n3c(-c4ccccc4)nc4ccccc4c3=O)C2=O)c1 | > 100 µM | > 100 µM | > 100 µM | > 100 µM | – | > 100 µM | – | > 100 µM | > 100 µM | – | – | – | – | –
CC(=O)c1ccccc1NS(=O)(=O)c1ccc2nc(C)n(NS(=O)(=O)c3ccccc3C(C)=O)c(=O)c2c1 | > 100 µM | – | > 100 µM | > 100 µM | > 100 µM | > 100 µM | > 100 µM | > 100 µM | > 100 µM | > 100 µM | – | – | – | –
CCOC(=O)C1=C(C)NC(C)=C(C(=O)OCC)C1c1ccc(C)cc1 | > 100 µM | > 100 µM | 80.5 µM | > 100 µM | > 100 µM | > 100 µM | – | 94.2 µM | > 100 µM | 51.5 µM | – | – | – | –
CCOP(C)(=O)/C(Cc1ccc(OC)c(OC)c1)=N\O (stereo not given) | – | > 100 µM | > 100 µM | > 100 µM | > 100 µM | > 100 µM | > 100 µM | > 100 µM | > 100 µM | > 100 µM | – | – | – | –
CCc1c(C)c2ccc(OCC(=O)N=Nc3c(O)[nH]c4ccccc34)c(C)c2oc1=O | – | > 33.3 µM | – | – | – | > 33.3 µM | – | 1.81 µM | – | 1.56 µM | > 33.3 µM | 1.19 µM | 0.69 µM | 0.77 µM
COc1ccc(/C=C2\CN(C)CC3C2=NN(c2ccccc2)C3c2ccc(OC)cc2)cc1 (stereo not given) | > 100 µM | > 100 µM | > 100 µM | > 100 µM | – | > 100 µM | > 100 µM | > 100 µM | > 100 µM | > 100 µM | – | – | – | –
CC(C)(O)CCc1ccc(O)c2c(=O)c3c(O)c4c(cc3oc12)O[C@H]1OC=C[C@@]41O | 0.291 µM | > 100 µM | > 100 µM | > 100 µM | 0.0396 µM | > 100 µM | – | 18.3 µM | 0.273 µM | 14.8 µM | – | – | – | –
COc1ccc(-c2nc3cc(C(F)(F)F)ccc3n2CC2CCCN3CCCCC23)cc1 (stereo not given) | 26.7 µM | – | – | 26.1 µM | 30.7 µM | 28 µM | – | 29.2 µM | 30.8 µM | 27.9 µM | – | – | – | –
NC(=O)C1N=NSC1NC(=O)c1ccc([N+](=O)[O-])cc1 (stereo not given) | > 100 µM | > 100 µM | > 100 µM | > 100 µM | > 100 µM | > 100 µM | > 100 µM | – | > 100 µM | – | – | – | – | –
Nc1ccc(OCCCc2c(-c3ccccc3)nc(N)[nH]c2=O)cc1 | > 100 µM | – | > 100 µM | > 100 µM | > 100 µM | > 100 µM | > 100 µM | > 100 µM | > 100 µM | – | – | – | – | –
Cc1ccc(S(=O)(=O)N2CCCSCCN(S(=O)(=O)c3ccc(C)cc3)CCCSCC2)cc1 | > 100 µM | > 100 µM | > 100 µM | > 100 µM | > 100 µM | > 100 µM | – | – | > 100 µM | > 100 µM | – | – | – | –
S=C(c1c[nH]c2ccccc12)N1CCCCC1 | > 100 µM | – | > 100 µM | > 100 µM | > 100 µM | > 100 µM | > 100 µM | – | > 100 µM | – | – | – | – | –
